{
  "source": "patent US5686417A",
  "about": "“Peptide T and related peptides in the treatment of HTLV-1 myelopathy and multiple sclerosis” (Reed MacFadden, Ltd., priority 1995, dated 1997)",
  "key": {"[1]": {"tested_on": "multiple sclerosis patients", "experiment": "case treatments of multiple sclerosis (Examples 2-5)", "format": "in vivo, human", "description": "A person was diagnosed as having MS after presenting with weakness, loss of balance, double vision, and paraesthesia in their right arm. They were treated with prednisone and later with physiotherapy. […] Tone was increased in both lower limbs and they had bilateral ankle clonus. Deep tendon reflexes were 2+ in the arms, 3+ in both knees and ankles and the planter responses were extensor.\nThey were started on 10 milligram subcutaneous injections of Peptide T daily. […] Their frequency of nocturia was reduced, fine motor control improved, stuttering decreased, their legs were less spastic and they could stand with minimal support.\nA person was diagnosed with optic neuritis secondary to multiple sclerosis after presenting with numbness, impaired motor function, and blurred vision (20/300 bilaterally). Their somatic neurological examination was within normal limits. Minor episodes of numbness and impaired speech, balance and co-ordination had occurred over 6 months, as well as headache and loss of vision.\nPeptide T therapy was started.\nA person with their first multiple sclerosis episode had optic neuritis and complete blindness in the right eye for 2 weeks, numbness in their right leg and then both legs. Their symptoms worsened. […] They had worsening of their ataxia and blurred vision. They were given prednisone 80 milligrams per day. […] The patient complained of oscillopsia. […] Findings were typical of demyelination consistent with MS. […] The tone was increased in their lower limbs and they had non-sustained ankle clonus bilaterally. Their knee jerk was increased on the right compared to the left. Plantar responses were both upgoing. They had decreased position, vibration, light touch and cold sensation in the feet compared to the hands.\nAbout 2 months later the patient was started on Peptide T 10 milligrams subcutaneously daily. […] They experienced improved feelings in their fingers, fine movements of their hands and improved cognitive function.\nA person with a history of dizziness, ataxia, episodes of vertigo, impairment of motor function and generalized weakness of the legs was treated with dilantin and admitted to hospital. […] They were reassessed about 2 years later for episodes of dizziness, and complaints of leg spasms. […] Planter response was downgoing and they had upwards gaze vertical nystagmus as previously noted."}, "[2]": {"conditions": "in vivo; cited from earlier work"}, "rat spinal cord": {"tested_on": "rat spinal cord", "conditions": "spinal administration; cited from earlier work"}, "[3]": {"tested_on": "mouse fetal hippocampal neurons", "conditions": "mouse hippocampal neuronal culture; cited from earlier work"}, "protein kinase C": {"tested_on": "protein kinase C", "conditions": "cited from earlier work"}},
  "data": [
    {"compound": "NCC(CC(=O)O)c1ccc(Cl)cc1", "note": "(centres unmarked) [Lioresal (Baclofen), Baclofen]", "values": [
      {"measurement": "response to earlier treatment", "setting": "[1]; Example 2, before Peptide T", "result": "some improvement"}
    ]},
    {"compound": "C[C@@H](N)C(=O)N[C@@H](CO)C(=O)N[C@H](C(=O)N[C@H](C(=O)N[C@H](C(=O)N[C@@H](CC(N)=O)C(=O)N[C@@H](Cc1ccc(O)cc1)C(=O)N[C@H](C(N)=O)[C@@H](C)O)[C@@H](C)O)[C@@H](C)O)[C@@H](C)O", "note": "[Peptide T, D-Ala-Ser-Thr-Thr-Thr-Asn-Tyr-Thr- Amide]", "values": [
      {"measurement": "exit from the brain", "setting": "[2]", "result": "diffusion only"}
    ]},
    {"compound": "C[C@]12C=CC(=O)C=C1CC[C@@H]1[C@@H]2C(=O)C[C@@]2(C)[C@H]1CC[C@]2(O)C(=O)CO", "note": "[prednisone]", "values": [
      {"measurement": "symptomatic response", "setting": "[1]; Example 4, 150 mg daily, while off Peptide T", "result": "minimal symptomatic improvement"},
      {"measurement": "ataxia and some visual problems", "setting": "[1]; Example 4, 80 milligrams per day", "result": "seemed to improve"},
      {"measurement": "response to treatment", "setting": "[1]; Example 4, first course, dose not stated", "result": "some improvement"}
    ]},
    {"compound": "vasoactive intestinal peptide [VIP]", "values": [
      {"measurement": "analgesia, fail-flick latency test and tail-shock induced vocalization test", "setting": "rat spinal cord", "result": "produced analgesia"},
      {"measurement": "effect on gp120-induced neurotoxicity", "setting": "[3]", "result": "completely eliminated"},
      {"measurement": "cellular effects via protein kinase C", "setting": "protein kinase C", "result": "regulation of protein kinase C"}
    ]}
  ]
}
